Assay results from US20050215544A1, “Methods of treating HIV infection” (priority 2004, published 2005).

Assays:
HIV-1 LAI [1] = experiment: microbe, parasite or virus in culture
Procedure: (§1) Virus and cell lines. The T-cell lines, MT-2 and PM-1 were obtained through the AIDS Research and Reference Reagent Program, NIAID, and were contributed by Dr. D. Richman and Dr. R. Gallo, respectively. Both cell lines were cultured in RPMI 1640 medium supplemented with 10% fetal bovine serum, 2 mM L-glutamine and sub-cultured twice a week. The LAI strain of HIV-1 was obtained from the Fred Hutchinson Cancer Research Center, and the Bal strain was from NIH. Both virus stocks were amplified and titered in MT-2 cells (LAI) and PM-1 cells (Bal) using a virus infectivity assay.
(§2) Drug Susceptibility and Cytotoxicity Assays. For drug susceptibility assays, MT-2 cells were infected with HIV-1 LAI (or PM-1 cells with HIV-1 Bal) at an MOI of 0.005, and seeded into 96-well microtiter plates ([…] cells/ml) containing serial dilutions of test compounds. […] Each drug ratio consisted of an array of 3-fold serial dilutions, and was performed in quadruplicate. The plates were incubated at 37° C./5% CO2. The MT-2 cells infected with HIV-1 LAI were incubated for 5 days. On day-five post-infection, 20 μl from each well was harvested and quantitated by a reverse transcriptase (RT) assay, or in samples involving non-nucleoside RT inhibitors, an MTS assay. The PM-1 cells infected with HIV-1 Bal and used for studying the combinations with CCR5 inhibitors were incubated for six days. On day-six post-infection, 20 μl from each well was harvested, 20- and 50-fold diluted and quantitated by p24 assay. Cytotoxicity assays were performed using uninfected cells, exposed to the same drug combinations, and incubated for six days. Cell viability was determined by an MTS assay. The CC50 values were calculated by using the exponential form of the median effect equation as mentioned below for calculation of EC50.
(§3) In this equation, Fa stands for “fraction affected,” and represents the fraction of the viral load that has been inactivated. […] ED50 is drug concentration that is expected to reduce the amount of virus by 50%, and m is a parameter that reflects the slope of the concentration-response curve.
In carrying out the combination experiments below, the EC50 for Compound 1 and each comparator compound was determined during the course of each study, and used in the subsequent data analysis.

HIV-1 LAI [2] = experiment: Two-drug combination antiviral assay with Compound 1 (combination indices, Chou and Rideout); type: cell-based; conditions: combination with Compound 1; for Combination Indices at 50% HIV Inhibition (Confidence Interval) / Combination Indices at 75% HIV Inhibition (Confidence Interval) / Combination Indices at 90% HIV Inhibition (Confidence Interval): 95% CI in parenthesis; for Overall Result of two-drug combination: all ratios and inhibition levels
Procedure: as §1, §2
Analysis of Drug Combination Effects. For determination of CI values, drugs were diluted in a fixed ratio and multiple ratios were analyzed. The drug serial dilutions spanned a range of concentrations near the EC50 value of each compound, so that equivalent antiviral activities could be compared. Concentration-response curves were estimated for each individual drug and every combination using the median-effect equation. The equation was fit using a nonlinear regression routine (Proc Nlin) in PC SAS version 8.01 (SAS Institute Inc., SAS Version 8.01, Cary, NC: SAS Institute Inc., 1990).
as §3
To assess antiviral effects of different drug combination treatments, combination indices (CIs) were calculated according to Chou and Rideout. The combination index was computed as CI=[D]1/[Dm]1+[D]2/[Dm]2
In this equation [Dm]1 and [Dm]2 are the concentrations of drugs that would individually produce a specific level of effect, while [D]1 and [D]2 are the concentrations of drugs in combination that would produce the same level of effect.
Theoretically, additivity is implied if the CI is equal to one, synergy if the CI is less than one, and antagonism if the CI is greater than one. […] At best, we can construct a range that contains the likely values for the CI, given the noise in the data. In this report, these ranges are reported in parentheses next to each point estimate of the CI. […] If the range fell entirely above 1.0, we would infer antagonistic behavior. If the range were to include 1.0, we would infer additivity.

uninfected cells = experiment: Cytotoxicity assay of the drug combinations in uninfected cells (MTS); type: cell-based; conditions: combination with Compound 1 at highest concentrations tested, six days
Procedure: Drug Susceptibility and Cytotoxicity Assays. […] Each drug ratio consisted of an array of 3-fold serial dilutions, and was performed in quadruplicate. The plates were incubated at 37° C./5% CO2. […] On day-five post-infection, 20 μl from each well was harvested and quantitated by a reverse transcriptase (RT) assay, or in samples involving non-nucleoside RT inhibitors, an MTS assay. The PM-1 cells infected with HIV-1 Bal and used for studying the combinations with CCR5 inhibitors were incubated for six days. On day-six post-infection, 20 μl from each well was harvested, 20- and 50-fold diluted and quantitated by p24 assay. Cytotoxicity assays were performed using uninfected cells, exposed to the same drug combinations, and incubated for six days. Cell viability was determined by an MTS assay. The CC50 values were calculated by using the exponential form of the median effect equation as mentioned below for calculation of EC50.

[3] = Human immunodeficiency virus 1, MT2, 120 h
[4] = EC50 ratio 1:1 (Compound 1 to comparator)
[5] = EC50 ratio 1:2.5 (Compound 1 to comparator)
[6] = EC50 ratio 2.5:1 (Compound 1 to comparator)

Row | Compound | EC50 (HIV-1 LAI [1]; [3]) | Combination Indices at 50% HIV Inhibition (Confidence Interval) (HIV-1 LAI [2]; [4]) | Combination Indices at 75% HIV Inhibition (Confidence Interval) (HIV-1 LAI [2]; [4]) | Combination Indices at 90% HIV Inhibition (Confidence Interval) (HIV-1 LAI [2]; [4]) | Combination Indices at 50% HIV Inhibition (Confidence Interval) (HIV-1 LAI [2]; [5]) | Combination Indices at 75% HIV Inhibition (Confidence Interval) (HIV-1 LAI [2]; [5]) | Combination Indices at 90% HIV Inhibition (Confidence Interval) (HIV-1 LAI [2]; [5]) | Combination Indices at 50% HIV Inhibition (Confidence Interval) (HIV-1 LAI [2]; [6]) | Combination Indices at 75% HIV Inhibition (Confidence Interval) (HIV-1 LAI [2]; [6]) | Combination Indices at 90% HIV Inhibition (Confidence Interval) (HIV-1 LAI [2]; [6]) | Overall Result of two-drug combination (HIV-1 LAI [2]) | Cytotoxicity of the drug combination (uninfected cells) | EC50 (HIV-1 LAI [1]; MT-2 cells infected with HIV-1 LAI, MOI 0.005, 5 days, single drug) | Overall Result of two-drug combination (HIV-1 LAI [2]; listed as enfuvurtide)
1 | c1cc(CN2CCCNCCNCCCNCC2)ccc1CN1CCCNCCNCCCNCC1 [AMD-3100] | 4 nM | 0.51 (0.34, 0.69) | 0.63 (0.33, 0.94) | 0.89 (0.22, 1.57) | 0.65 (0.49, 0.80) | 0.55 (0.37, 0.74) | 0.58 (0.27, 0.89) | 0.56 (0.38, 0.73) | 0.62 (0.18, 0.90) | 0.74 (0.22, 1.26) | moderate synergistic | No significant cytotoxicity | – | –
2 | CON(Cc1ccc(F)cc1)C(=O)C=C(O)C(=O)O [Compound 2, 3-[(4-Fluorobenzyl)methoxycarbamoyl]-2-hydroxyacrylic acid] | 84 nM | 0.42 (0.32, 0.52) | 0.49 (0.33, 0.64) | 0.57 (0.28, 0.85) | 0.38 (0.30, 0.46) | 0.42 (0.30, 0.55) | 0.48 (0.26, 0.69) | 0.46 (0.34, 0.59) | 0.66 (0.41, 0.92) | 0.96 (0.37, 1.54) | Synergistic | No significant cytotoxicity | – | –
3 | enfuvirtide | – | 0.17 (0.13, 0.21) | 0.42 (0.29, 0.55) | 1.03 (0.49, 1.58) | 0.14 (0.11, 0.18) | 0.30 (0.21, 0.39) | 0.65 (0.32, 0.97) | 0.26 (0.21, 0.31) | 0.46 (0.34, 0.58) | 0.82 (0.46, 1.18) | Moderate- | No significant cytotoxicity | 6 nM | moderate synergistic
